The values that follow come from US7291642B2, “Bradykinin-B1 antagonists, process for their preparation and their use as medicaments” (Boehringer Ingelheim International GmbH, priority 2004, dated 2007).

For this assay, the target named is T1, hBK1 receptor (Homo sapiens, UniProt P46663).
T1 construct: expressed in transfected cells; host or cells: CHO cells (membrane homogenate)
T1 sequence (P46663 1-353): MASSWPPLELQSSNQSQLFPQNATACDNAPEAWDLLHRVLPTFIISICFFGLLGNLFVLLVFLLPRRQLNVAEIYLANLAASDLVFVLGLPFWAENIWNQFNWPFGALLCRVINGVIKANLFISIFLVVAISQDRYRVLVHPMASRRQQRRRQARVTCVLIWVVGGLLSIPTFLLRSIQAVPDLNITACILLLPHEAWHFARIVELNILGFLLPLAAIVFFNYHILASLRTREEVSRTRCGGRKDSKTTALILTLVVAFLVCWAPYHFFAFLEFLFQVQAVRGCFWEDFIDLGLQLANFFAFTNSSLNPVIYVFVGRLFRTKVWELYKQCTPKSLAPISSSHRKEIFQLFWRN
The experiment in a line: hBK1 receptor binding. Conditions: membranes of CHO cells expressing the hBK1 receptor; radioligand 0.5 to 1.0 nM kallidin (DesArg10, Leu9), [3,4-prolyl-3,43H(N)]; 60 minutes, room temperature. On the procedure:
CHO cells expressing the hBK1 receptor are cultivated in Dulbecco's modified medium. The medium from confluent cultures is removed and the cells are washed with PBS buffer, scraped off and isolated by centrifugation. The cells are then homogenized in suspension and the homogenate is centrifuged and resuspended. The protein content is determined and the membrane preparation obtained in this manner is then frozen at −80° C.
After thawing, 200 μl of the homogenate (50 to 100 μg of proteins/assay) are incubated at room temperature with 0.5 to 1.0 nM of kallidin (DesArg10, Leu9), [3,4-prolyl-3,43H(N)] and increasing concentrations of the test substance in a total volume of 250 μl for 60 minutes. The incubation is terminated by rapid filtration through GF/B glass fibre filters which had been pretreated with polyethyleneimine (0.3%). The protein-bound radioactivity is measured in a TopCount NXT. Non-specific binding is defined as radioactivity bound in the presence of 1.0 μM of […]. The concentration/binding curve is analysed using a computer-assisted nonlinear curve fitting. The Ki which corresponds to the test substance is determined using the data obtained in this manner.

Counter-ions that a name gives are not always drawn.

A word on the Ki: it is the equilibrium dissociation constant of an inhibitor or competing ligand from its target. A higher Ki goes with lower affinity.

The compound `Cc1cc(S(=O)(=O)N(C)CCNC(=O)CCc2ccc(C3=NCCN3)cc2)c(C)cc1Cl` [D, N-{2-[(4-chloro-2,5-dimethylbenzenesulphonyl)methylamino]ethyl}-3-[4-(4,5-dihydro-1H-imidazol-2-yl)phenyl]propionamide] came in with an inhibitory constant (Ki) of 0.17 µM.
The figure for `CC(C)N(CCCC(=O)N(C)CCc1ccc(C2=NCCN2)cc1)S(=O)(=O)c1cccc(Cl)c1Cl` [A, 4-[(2,3-dichlorobenzenesulphonyl)isopropylamino]-N-{2-[4-(4,5-dihydro-1H-imidazol-2-yl)phenyl]ethyl}-N-methylbutyramide] is 0.062 µM.
The same measure for `Cc1cc(S(=O)(=O)N2CCCCC2CCC(=O)N(C)CCc2ccc(C3=NCCN3)cc2)c(C)cc1Cl` (centres unmarked) [B, 3-[1-(4-chloro-2,5-dimethylbenzenesulphonyl)piperidin-2-yl]-N-{2-[4-(4,5-dihydro-1H-imidazol-2-yl)phenyl]ethyl}-N-methylpropionamide hydrochloride]: 0.026 µM; for `CN(CCc1ccc(C2=NCCN2)cc1)C(=O)C1CCCN(S(=O)(=O)c2cccc(Cl)c2Cl)C1` (centres unmarked) [C, 1-[(2,3-dichlorobenzenesulphonyl)piperidin-3-yl]-N-({2-[4-(4,5-dihydro-1H-imidazol-2-yl)phenyl]ethyl}methyl)carboxamide]: 0.957 µM.
In the case of `CN(CCN1CCN(CCc2ccc(C3=NCCN3)cc2)C1=O)S(=O)(=O)c1cccc(Cl)c1Cl` [E, 2,3-dichloro-N-[2-(3-{2-[4-(4,5-dihydro-1H-imidazol-2-yl)phenyl]ethyl}-2-oxoimidazolidin-1-yl)ethyl]-N-methylbenzenesulphonamide hydrochloride], the inhibitory constant (Ki) was 1.52 µM.
